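Exposure lasted 48 hours, with cells grown in 96-well plates and compounds tested at five concentrations. Abbreviation: GI50, concentration required for 50% inhibition of growth.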 Calls of active or inactive are those of the source. No stated cut-off is given here; in the data, active = GI50 up to about 1.1 µM and inactive = higher.
Experiments:
Assay in all cases: NCI tumour cell line growth inhibition, 48 h
IGROV-1 = test system: IGROV-1
COLO 205 = test system: COLO 205
OVCAR-4 = test system: OVCAR-4
RXF 393 = test system: RXF 393
OVCAR-3 = test system: OVCAR-3
NCI-H460 = test system: NCI-H460
ACHN = test system: ACHN
OVCAR-8 = test system: OVCAR-8
LOX IMVI = test system: LOX IMVI
SF-539 = test system: SF-539
NCI-H23 = test system: NCI-H23
SK-MEL-28 = test system: SK-MEL-28
PC-3 = test system: PC-3
CAKI-1 = test system: CAKI-1
Hs-578T = test system: Hs-578T
SW-620 = test system: SW-620
OVCAR-5 = test system: OVCAR-5
MDA-MB-231 = test system: MDA-MB-231
CCRF-CEM = test system: CCRF-CEM
SNB-19 = test system: SNB-19

Row | SMILES | GI50 (IGROV-1) | GI50 (COLO 205) | GI50 (OVCAR-4) | GI50 (RXF 393) | GI50 (OVCAR-3) | GI50 (NCI-H460) | GI50 (ACHN) | GI50 (OVCAR-8) | GI50 (LOX IMVI) | GI50 (SF-539) | GI50 (NCI-H23) | GI50 (SK-MEL-28) | GI50 (PC-3) | GI50 (CAKI-1) | GI50 (Hs-578T) | GI50 (SW-620) | GI50 (OVCAR-5) | GI50 (MDA-MB-231) | GI50 (CCRF-CEM) | GI50 (SNB-19)
1 | CCOC(OCC)C(CC)[Se]c1ccccc1[N+](=O)[O-] (stereo not given) | 3.48 µM (inactive) | 2.48 µM (inactive) | > 55.5 µM (inactive) | 1.8 µM (inactive) | 2.45 µM (inactive) | 2.81 µM (inactive) | 11.3 µM (inactive) | 4.48 µM (inactive) | 5.33 µM (inactive) | 2.02 µM (inactive) | 3.03 µM (inactive) | 10.5 µM (inactive) | 3.27 µM (inactive) | 2.75 µM (inactive) | 3.18 µM (inactive) | 2.5 µM (inactive) | 6.35 µM (inactive) | 9.2 µM (inactive) | 2 µM (inactive) | 3.75 µM (inactive)
2 | CCN(CC)C(=O)CCCCCCCCC1CO1 (stereo not given) | > 100 µM (inactive) | > 100 µM (inactive) | > 100 µM (inactive) | > 100 µM (inactive) | > 100 µM (inactive) | > 100 µM (inactive) | > 100 µM (inactive) | > 100 µM (inactive) | 63.4 µM (inactive) | > 100 µM (inactive) | > 100 µM (inactive) | > 100 µM (inactive) | > 100 µM (inactive) | > 100 µM (inactive) | > 100 µM (inactive) | > 100 µM (inactive) | > 100 µM (inactive) | > 100 µM (inactive) | > 100 µM (inactive) | > 100 µM (inactive)
3 | CC(C)=CCC[C@@H](C)C1=C(O)C(=O)C(C)=C(Nc2ccccc2Br)C1=O | 8.69 µM (inactive) | 15.9 µM (inactive) | 6.52 µM (inactive) | 14.3 µM (inactive) | 4.13 µM (inactive) | 13.4 µM (inactive) | 15.6 µM (inactive) | 7.57 µM (inactive) | 11.9 µM (inactive) | 8.59 µM (inactive) | 9.71 µM (inactive) | 14.4 µM (inactive) | 8.51 µM (inactive) | 18.6 µM (inactive) | 13.8 µM (inactive) | 17.3 µM (inactive) | 20.3 µM (inactive) | 20.7 µM (inactive) | 3.84 µM (inactive) | 16.4 µM (inactive)
4 | O=C(CCl)Nc1ccc(-c2nc3ccccc3s2)cc1 | 1.34 µM (inactive) | 2.07 µM (inactive) | 3.37 µM (inactive) | 3.43 µM (inactive) | 1.82 µM (inactive) | 2.84 µM (inactive) | 5.28 µM (inactive) | 2.59 µM (inactive) | 0.847 µM (active) | 3.04 µM (inactive) | 2.96 µM (inactive) | 4.12 µM (inactive) | 2.56 µM (inactive) | 1.74 µM (inactive) | 5.96 µM (inactive) | 2.21 µM (inactive) | 5.82 µM (inactive) | 3.07 µM (inactive) | 0.94 µM (active) | 2.4 µM (inactive)
5 | O=C(O)CCCCn1ccc(=O)[nH]c1=O | > 100 µM (inactive) | > 100 µM (inactive) | > 100 µM (inactive) | > 100 µM (inactive) | > 100 µM (inactive) | > 100 µM (inactive) | > 100 µM (inactive) | > 100 µM (inactive) | > 100 µM (inactive) | > 100 µM (inactive) | > 100 µM (inactive) | > 100 µM (inactive) | > 100 µM (inactive) | > 100 µM (inactive) | > 100 µM (inactive) | > 100 µM (inactive) | > 100 µM (inactive) | > 100 µM (inactive) | > 100 µM (inactive) | > 100 µM (inactive)
6 | COc1ccc2c(n1)Sc1nc3ccccc3nc1N2 | 5.92 µM (inactive) | > 100 µM (inactive) | 67.3 µM (inactive) | 32.2 µM (inactive) | 32.4 µM (inactive) | 63.1 µM (inactive) | 23.2 µM (inactive) | 16.2 µM (inactive) | 31.4 µM (inactive) | 14.4 µM (inactive) | 17.9 µM (inactive) | > 100 µM (inactive) | 89.5 µM (inactive) | 88.3 µM (inactive) | 27.9 µM (inactive) | > 100 µM (inactive) | 56.1 µM (inactive) | 13.2 µM (inactive) | 29.4 µM (inactive) | 30.3 µM (inactive)
7 | c1ccc(C2=Nc3cccc4cccc(c34)N2)cc1 | > 54.6 µM (inactive) | 18.6 µM (inactive) | 18.7 µM (inactive) | 22 µM (inactive) | 23.7 µM (inactive) | 57 µM (inactive) | 26.2 µM (inactive) | 35.5 µM (inactive) | 23.5 µM (inactive) | 56.2 µM (inactive) | > 60.5 µM (inactive) | > 79.1 µM (inactive) | 22.8 µM (inactive) | 37.2 µM (inactive) | 58.1 µM (inactive) | 20.4 µM (inactive) | 69.5 µM (inactive) | 19.7 µM (inactive) | 3.82 µM (inactive) | > 100 µM (inactive)
8 | C/C(=N\Nc1nc2ccccc2s1)c1cccc[n+]1[O-] | 21.7 µM (inactive) | 32.2 µM (inactive) | 86.3 µM (inactive) | 66.2 µM (inactive) | 24.8 µM (inactive) | 46.2 µM (inactive) | 37.1 µM (inactive) | 30.2 µM (inactive) | 48.6 µM (inactive) | 45.1 µM (inactive) | 47.3 µM (inactive) | > 100 µM (inactive) | 33 µM (inactive) | 32.4 µM (inactive) | > 100 µM (inactive) | 32.7 µM (inactive) | 2.33 µM (inactive) | 49.9 µM (inactive) | 25.2 µM (inactive) | > 100 µM (inactive)
9 | CCOC(=O)c1cc2c(OC)cc(OC)cc2oc1=O | > 100 µM (inactive) | > 100 µM (inactive) | > 100 µM (inactive) | 57.3 µM (inactive) | > 100 µM (inactive) | > 100 µM (inactive) | > 100 µM (inactive) | > 100 µM (inactive) | 5.58 µM (inactive) | > 100 µM (inactive) | 63.8 µM (inactive) | > 100 µM (inactive) | > 100 µM (inactive) | 55.3 µM (inactive) | 45.2 µM (inactive) | > 100 µM (inactive) | > 100 µM (inactive) | 35.9 µM (inactive) | > 100 µM (inactive) | 41.8 µM (inactive)
10 | O=C1NC2=NN=C(c3ccc(Br)cc3)CN2NC12c1ccccc1-c1ccccc12 | > 100 µM (inactive) | > 100 µM (inactive) | > 100 µM (inactive) | > 100 µM (inactive) | > 100 µM (inactive) | > 100 µM (inactive) | > 100 µM (inactive) | > 100 µM (inactive) | > 100 µM (inactive) | > 100 µM (inactive) | > 100 µM (inactive) | > 100 µM (inactive) | > 100 µM (inactive) | > 100 µM (inactive) | 37 µM (inactive) | > 100 µM (inactive) | > 100 µM (inactive) | > 100 µM (inactive) | 3.05 µM (inactive) | > 100 µM (inactive)
11 | C1=C(c2ccccc2)SC=C(c2ccccc2)S1 | 19.9 µM (inactive) | 30.1 µM (inactive) | 32.4 µM (inactive) | 1.05 µM (active) | 33.7 µM (inactive) | 29.5 µM (inactive) | 60.5 µM (inactive) | 44.8 µM (inactive) | 36.9 µM (inactive) | 31.7 µM (inactive) | 72.8 µM (inactive) | 49 µM (inactive) | > 100 µM (inactive) | 60.4 µM (inactive) | 44 µM (inactive) | 25.9 µM (inactive) | 44.4 µM (inactive) | 32.2 µM (inactive) | 57.1 µM (inactive) | > 100 µM (inactive)
12 | CC[C@@H]1CN2CCC1C[C@@H]2C(O)c1ccnc2ccc(OCCN3CCN(CCOc4ccc5nccc(C(O)[C@@H]6C[C@@H]7CCN6C[C@@H]7CC)c5c4)CC3)cc12 (stereo not given in full) | 13.9 µM (inactive) | 14.7 µM (inactive) | 19.8 µM (inactive) | 16.5 µM (inactive) | 19.6 µM (inactive) | 17.3 µM (inactive) | 15.1 µM (inactive) | 19.3 µM (inactive) | 14.8 µM (inactive) | 13.8 µM (inactive) | 20.7 µM (inactive) | 17.1 µM (inactive) | 15.9 µM (inactive) | 17.9 µM (inactive) | 15.3 µM (inactive) | 21.8 µM (inactive) | 18.6 µM (inactive) | 15.9 µM (inactive) | 4.45 µM (inactive) | 14.5 µM (inactive)
13 | Cc1cc(S(=O)(=O)Nc2nc3ccccc3[nH]2)c(S)cc1Cl | 61.5 µM (inactive) | 82.2 µM (inactive) | 61.4 µM (inactive) | > 100 µM (inactive) | 49.2 µM (inactive) | 32.7 µM (inactive) | 71.9 µM (inactive) | > 100 µM (inactive) | 19.3 µM (inactive) | > 100 µM (inactive) | 67.9 µM (inactive) | 27.4 µM (inactive) | 46.6 µM (inactive) | 45 µM (inactive) | 70 µM (inactive) | 37.6 µM (inactive) | > 100 µM (inactive) | 58.6 µM (inactive) | 26.6 µM (inactive) | 72.3 µM (inactive)
14 | O=C(O)C1C2C=CC(O2)C1C(=O)Nc1ncccn1 (stereo not given) | > 100 µM (inactive) | > 100 µM (inactive) | > 100 µM (inactive) | > 100 µM (inactive) | > 100 µM (inactive) | > 100 µM (inactive) | > 100 µM (inactive) | > 100 µM (inactive) | > 100 µM (inactive) | > 100 µM (inactive) | > 100 µM (inactive) | > 100 µM (inactive) | > 100 µM (inactive) | > 100 µM (inactive) | > 100 µM (inactive) | > 100 µM (inactive) | > 100 µM (inactive) | > 100 µM (inactive) | > 100 µM (inactive) | > 100 µM (inactive)
